Data on eight compounds can be found in patent US11185076B2 (priority 2017, dated 2021).

Where two headings read alike, the source gives them in different places.

Data set [1] concerns cucumber mosaic virus (CMV). The following applies: for Number of CMV Infected Plants: Acute wilt / Number of CMV Infected Plants: Mosaic / Number of CMV Infected Plants: No Infection: 5 plants; for Number of CMV Infected Plants: Acute wilt / Number of CMV Infected Plants: Mosaic / Number of CMV Infected Plants: No Infection / Control value / Disease Severity index: drench 3 days before inoculation, g ai/10a: (a) 90, (b) 150, dinotefuran 120, thiamethoxam 60, (h) 250, mixtures 90 + 120 and 150 + 60; for phytotoxicity: cucumber (cultivar: Sagami-hanjiro).

The test system of data set [2] is Chinese cabbage soft rot bacteria (Erwinia carotovora subsp. carotovora). Briefly: Control test on Chinese cabbage soft rot (soil incorporation test). The data set is classed as in vivo. The note with it: for phytotoxicity: Chinese cabbage plant (cultivar: Muso). From the text:
Granules containing 3% of tolprocarb (a) (trade name; Sanblas (registered trademark) granules (manufactured by Mitsui Chemical Agro Co., Ltd.)), granules containing 5% of pyroquilon (b) (trade name; Coratop (registered trademark) granules (manufactured by Mitsui Chemical Agro Co., Ltd.)), granules containing 1.5% of simeconazole (fungicidal component) (trade name; Mongalite (registered trademark) granules (manufactured by Mitsui Chemical Agro Co., Ltd.)) and flowable containing 20% of penthiopyrad (fungicidal component) were respectively incorporated or were incorporated in combination into a pot soil in a predetermined amount. Then, the Chinese cabbage was planted in the pot soil. At 14 days after chemical agent treatment, the Chinese cabbage soft rot was inoculated. […] Thereafter, the inoculated plantes were put in a 25° C. greenhouse to promote infection for 2 days, and the control effect was examined. The infection was examined by the degree of infection, and the disease severity index was calculated based on the degree of infection. The control value was calculated from the disease severity index.
Severity index=((the number of leaves of infection index 0×0)+(the number of leaves of infection index 1×1)+(the number of leaves of infection index 2×2)+(the number of leaves of infection index 3×3)/(the number of leaves examined×3)×100
(§1) The synergistic effect was calculated from the following Colby's equation. Synergistic effect (expected value)=(control value of compound A+control value of compound B)−(control value of compound A×control value of compound B)/100
(§2) When the control value exceeded the expected value in the case of mixing the compounds and applying the mixed product, it was determined that there was a synergistic effect.

In data set [3] the test system is tomato powdery mildew (Oidium neolycopersici). Kind of data set: Control test on tomato powdery mildew (soil incorporation test). The data set is classed as in vivo. The method, then: A tomato powdery mildew control test was performed in a greenhouse. A plastic pots having a diameter of 20 cm were used for the test. As test chemical agents, granules containing 3% of tolprocarb (compound (a)) (trade name; Sanblas (registered trademark) granules (Mitsui Chemical Agro Inc.)) commercially available and granules containing 5% of pyroquilon (compound (b)) (trade name: Coratop (registered trademark) granules (manufactured by Syngenta Japan Co., Ltd.)) were mixed to soil on the entire surface of the pot in an amount equivalent to 3 kg/10a. Also, the simplified emulsifiable concentrate E(c) containing the compound (c) was suspended in the distilled water, and was irrigated onto the entire surface of the pot to be incorporated. As the comparative example, granules (trade name: Oryzemate (registered trademark) granules (Meiji Seika Pharma Co., Ltd.)) containing 8% of probenazole (comparative compound (h)) was mixed to soil on the entire surface of the pot in an amount equivalent to 3 kg/10a. Tomato (cultivar: Ohgata-fukuju) grown up to 4-leaf stage of true leaf was planted in a plastic pots having a diameter of 20 cm and were treated with chemical agents. Plants were grown in a glass greenhouse and naturally occurring tomato powdery mildew (Oidium neolycopersici) was examined one month after chemical agent treatment. In the examination, an infection index of six leaves per pot was examined to calculate disease severity index. The control value was calculated from the disease severity index.
The criteria for the degree of infection are as follows.
1: lesion area rate of less than 5%
2: lesion area rate from 5% to 25%
3: lesion area rate from 25% to 50%
The severity index was calculated from the following equation. Severity index=((the number of compound leaves of infection index 0×0)+(the number of compound leaves of infection index 1×1)+(the number of compound leaves of infection index 2×2)+(the number of compound leaves of infection index 3×3)+(the number of compound leaves of infection index 4×4/(the number of compound leaves examined×4))×100

Data set [4] has as its system tomato yellow leaf curl disease (TYLCV). Briefly: Control test on tomato yellow leaf curl disease (TYLCV) (soil drench test). The following applies: for phytotoxicity: tomato (cultivar: Sekai-ichi). In kind it is in vivo, tomato yellow leaf curl virus. On the procedure: Granules containing 3% of tolprocarb (a) (trade name; Sanblas (registered trademark) granules (manufactured by Mitsui Chemical Agro Co., Ltd.)), granules containing 5% of pyroquilon (b) (trade name; Coratop (registered trademark) granules (manufactured by Syngenta Japan Ltd.)) and granules containing 1% of dinotefran (trade name; Starkle (registered trademark) granules (manufactured by Mitsui Chemicals Agro Co., Ltd.)) were respectively treated or were treated in combination to plant foot of tomato in a predetermined amount. Seven days after chemical agent treatment, the plants were inoculated by sucking of one adult of TYLCV-carrying tobacco whitefly biotype Q per plant for 3 days. Thereafter, the inoculated plants were put in the greenhouse to promote infection, and the control effect was examined after the infection. The infection was examined by the degree of infection, and the disease severity index was calculated based on the degree of infection. The control value was calculated from the disease severity index.
1: observation of initial infection (delayed infection)
2: observation of infection Severity index=((the number of plants of infection index 0×0)+(the number of plants of infection index 1×1)+(the number of plants of infection index 2×2)/(the number of plants examined×2))×100
as §1, §2

The test system of data set [5] is Rice Streak Virus (RSV). Briefly: Control test on rice streak virus (RSV) (field trial of nursery box application). In kind it is in vivo, rice stripe virus. On the procedure: Rice seedlings (cultivar: Hinohikari) were grown in a greenhouse according to an ordinary procedure and transplanted to an open paddy field. Granules containing 4% of tolprocarb (a) and granules containing 6% of dinotefuran (insecticidal ingredient) formulated according to Formulation Example 2 were respectively treated or were treated in combination in 50 g per box in a nursery box on the day of transplantation. 35 days after transplantation, larvae of RSV-carrying small brown planthopper were released for one week to inoculate rice plants by sucking. At 79 days and 99 days after transplantation, the presence or absence of the unshooting of head was examined.

For data set [6], the system named is cucumber mosaic virus (CMV).
The mark [7] stands for this setting: Total of plots, g ai/10a: (a) 90, (b) 150, (c) 90, (h) 240.
Where [8] appears, read: Total, one month after treatment, g ai/10a: (a) 90, (b) 150, (c) 90, (h) 240.
The mark [9] stands for this setting: plot I, g ai/10a: (a) 90, (b) 150, (c) 90, (h) 240.
The mark [10] stands for this setting: plot II, g ai/10a: (a) 90, (b) 150, (c) 90, (h) 240.
Where [11] appears, read: plot III, g ai/10a: (a) 90, (b) 150, (c) 90, (h) 240.
[12] abbreviates: 250 g ai/10a, drench 1 day before inoculation.
[13] abbreviates: 250 g ai/10a, drench 1 day before inoculation, 3 checked.

For `CN1COCN(Cc2cnc(Cl)s2)/C1=N\[N+](=O)[O-]` [Thiamethoxam, thiamethoxam], in data set [1], the “Number of CMV Infected Plants: Acute wilt” value is 1, the “Number of CMV Infected Plants: Mosaic” value is given as 3, the “Number of CMV Infected Plants: No Infection” value is recorded as 1 and the phytotoxicity entry is recorded as “not observed”. In data set [1], the Control value stood at 44.4 and the “Disease Severity index” value worked out at 50.0.

Regarding `C[Si](C)(C)CC(O)(Cn1cncn1)c1ccc(F)cc1` (stereo not shown) [simeconazole, reference compound], the phytotoxicity result in data set [2] is on record as “not observed”.

Consider `Cc1cccc2sc3nncn3c12` [Tricyclazole (c), tricyclazole], for which, in data set [3] (setting [7]), the “Infection index 0 (number of leaves)” value stood at 8, the “Infection index 1 (number of leaves)” value worked out at 8, the “Infection index 2 (number of leaves)” value came out at 2 and the “Infection index 3 (number of leaves)” value stood at 0. For the same compound, the “Infection index 4 (number of leaves)” value in data set [3] (setting [7]) is on record as 0. In data set [3] (setting [8]), this compound displayed a Control value of 66.7 and a Disease Severity index of 16.7. In data set [3] (setting [9]), the “Infection index 0 (number of leaves)” value worked out at 0, the “Infection index 1 (number of leaves)” value is 5, the “Infection index 2 (number of leaves)” value was determined as 1 and the “Infection index 3 (number of leaves)” value is given as 0. The “Infection index 4 (number of leaves)” value in data set [3] (setting [9]) is 0. In data set [3] (setting [10]), the “Infection index 0 (number of leaves)” value turned out to be 5, the “Infection index 1 (number of leaves)” value was 1, the “Infection index 2 (number of leaves)” value was determined as 0 and the “Infection index 3 (number of leaves)” value is listed as 0. Further, the “Infection index 4 (number of leaves)” value in data set [3] (setting [10]) is reported as 0. Further, in data set [3] (setting [11]), the “Infection index 0 (number of leaves)” value is 3, the “Infection index 1 (number of leaves)” value worked out at 2, the “Infection index 2 (number of leaves)” value is reported as 1 and the “Infection index 3 (number of leaves)” value was 0. Moreover, the “Infection index 4 (number of leaves)” value in data set [3] (setting [11]) turned out to be 0. The phytotoxicity entry in data set [3] (tomato (cultivar: Ohgata-fukuju), g ai/10a: (a) 90, (b) 150, (c) 90, (h) 240) is “not observed”. The “control effect on tomato powdery mildew (in words)” value in data set [3] (whole soil incorporation) is given as “excellent control effect”.

As for `C=CCOC1=NS(=O)(=O)c2ccccc21` [Probenazole (h), probenazole], in data set [1], the “Number of CMV Infected Plants: Acute wilt” value is 0, the “Number of CMV Infected Plants: Mosaic” value is on record as 2, the “Number of CMV Infected Plants: No Infection” value stood at 3 and the phytotoxicity result was “not observed”. For the same compound, in data set [1], the Control value is 77.8 and the “Disease Severity index” value is 20.0.

Regarding `O=C1CCc2cccc3c2N1CC3` [Pyroquilon (b), pyroquilon], the phytotoxicity result in data set [2] is “not observed”. Moreover, in data set [2] (whole soil incorporation at the time of planting), the “control effect on the Chinese cabbage soft rot (in words)” value is given as “excellent control effect”. For the same compound, in data set [1], the “Number of CMV Infected Plants: Acute wilt” value was found to be 0, the “Number of CMV Infected Plants: Mosaic” value worked out at 4, the “Number of CMV Infected Plants: No Infection” value amounted to 1 and the phytotoxicity entry was “not observed”. In data set [1], the Control value was 55.6 and the “Disease Severity index” value is reported as 40.0. Also, the “control effect on cucumber mosaic virus (CMV) (in words)” value in data set [1] (treatment on 3 day before inoculation) is “excellent control effect”. In data set [4], the phytotoxicity result is reported as “not observed”. In addition, the “control effect on tomato yellow leaf curl disease (TYLCV) (in words)” value in data set [4] (treatment on 7 day before inoculation) is given as “excellent control effect”.

As for `CN/C(=N/CC1CCOC1)N[N+](=O)[O-]` (stereo not shown) [Dinotefuran, dinotefuran], in data set [1], the “Number of CMV Infected Plants: Acute wilt” value amounted to 2, the “Number of CMV Infected Plants: Mosaic” value was 2, the “Number of CMV Infected Plants: No Infection” value was found to be 1 and the phytotoxicity entry was “not observed”. Also, in data set [1], the Control value came to 33.3 and the “Disease Severity index” value was found to be 60.0. The “control effect on the rice stripe blight (RSV) (in words)” value in data set [5] (nursery box application) is listed as “effect of delaying the occurrence of the unshooting of head”. Also, the phytotoxicity entry in data set [5] (rice (cultivar: Hinohikari)) was “not observed”. The phytotoxicity result in data set [4] was “not observed”.

As for `CC(C)CC(C)c1sccc1NC(=O)c1cn(C)nc1C(F)(F)F` (stereo not shown) [penthiopyrad, reference compound], the phytotoxicity result in data set [2] is “not observed”.

Regarding `CSC(=O)c1cccc2nnsc12` [Acibenzolar-S-methyl (i), acibenzolar S methyl, reference compound], in data set [6] (setting [12]), the Control value was 50.0 and the “Disease Severity index” value is 50.0. In data set [6] (setting [13]), the “Number of CMV Infected Leaves: Acute wilt” value was found to be 0, the “Number of CMV Infected Leaves: Mosaic” value is given as 3 and the “Number of CMV Infected Leaves: No Infection” value stood at 0. Besides, the phytotoxicity entry in data set [6] (cucumber (cultivar: Sagami-hanjiro)) is “not observed”.
